# Legend:
# [1] = system: Smn protein in SMA patient fibroblast cells (GM03813); experiment: Smn protein assay in cultured cells (SMN HTRF); assay type: cell-based, human; conditions: SMA patient fibroblast cells, 48 hours; for EC1.5x for Smn protein expression: 7-point concentration curve, SMN HTRF, concentration producing 1.5 times Smn protein vs DMSO vehicle control; for maximum fold (Fold) increase of Smn protein: 7-point concentration data, fold relative to vehicle control
# Method in brief: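 Smn protein abundance in treated SMA fibroblasts was measured by HTRF after 48 h compound exposure. The reported EC1.5× is the concentration producing 1.5 times vehicle Smn levels.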
# [2] = system: SMN2 minigene mRNA (SMN2-A minigene) in HEK293H cells; experiment: SMN2 minigene mRNA splicing RT-qPCR assay in cultured cells; assay type: cell-based, human; conditions: Homo sapiens, HEK293-H; concentration increasing full length SMN2 mRNA 1.5-fold relative to vehicle-treated cells; HEK293H cells with SMN2-A minigene, 24 hours, 7-point concentration data; read-out: EC1.5x for production of full length SMN2 mRNA
# Method in brief: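 Potency reflects the concentration that lifts full-length SMN2 minigene mRNA 1.5-fold above vehicle in stably transfected HEK293H cells after 24 h of treatment. Transcript abundance came from RT-qPCR as (1+E)^−Ct, normalized to GAPDH; endogenous SMN1/SMN2 are not detected.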
Structure (SMILES),EC1.5x for Smn protein expression [1],maximum fold (Fold) increase of Smn protein [1],EC (1.5-fold increase) [2] [µM]
"CCc1cc(-c2cc(=O)n3cc(N4C[C@@H](C)N[C@@H](C)C4)ccc3n2)cn2cc(C)nc12 [Compound 675, 7-[(3R,5S)-3,5-dimethylpiperazin-1-yl]-2-(8-ethyl-2-methylimidazo[1,2-a]pyridin-6-yl)-4H-pyrido[1,2-a]pyrimidin-4-one]",**** (an EC1.5x≤0.3 μM is indicated by four stars (****)),***** (a fold increase >1.65 is indicated by five stars (*****)),< 0.1
"CCc1cc(-c2cc(=O)n3cc(N4CCCN(C)CC4)ccc3n2)cn2cc(C)nc12 [Compound 676, 2-(8-ethyl-2-methylimidazo[1,2-a]pyridin-6-yl)-7-(4-methyl-1,4-diazepan-1-yl)-4H-pyrido[1,2-a]pyrimidin-4-one]",*** (an EC1.5× between >0.3 μM and ≤1 μM is indicated by three stars (***)),***** (a fold increase >1.65 is indicated by five stars (*****)),< 0.1
"CCN1CCC(c2cc(C)c3nc(-c4cc5c(C)nc(C)cn5n4)cc(=O)n3c2)CC1 [Compound 702, 2-(4,6-dimethylpyrazolo[1,5-a]pyrazin-2-yl)-7-(1-ethylpiperidin-4-yl)-9-methyl-4H-pyrido[1,2-a]pyrimidin-4-one]",**** (an EC1.5x≤0.3 μM is indicated by four stars (****)),***** (a fold increase >1.65 is indicated by five stars (*****)),< 0.1
"Cc1cn2cc(-c3cc(=O)n4cc(N5CCN[C@H](C)C5)ccc4n3)cc2c(C)n1 [Compound 713, 2-(1,3-dimethylpyrrolo[1,2-a]pyrazin-7-yl)-7-[(3R)-3-methylpiperazin-1-yl]-4H-pyrido[1,2-a]pyrimidin-4-one]",**** (an EC1.5x≤0.3 μM is indicated by four stars (****)),***** (a fold increase >1.65 is indicated by five stars (*****)),< 0.1
"Cc1cn2nc(-c3cc(=O)n4cc(CCCN)ccc4n3)cc2c(C)n1 [Compound 742, 7-(3-aminopropyl)-2-(4,6-dimethylpyrazolo[1,5-a]pyrazin-2-yl)-4H-pyrido[1,2-a]pyrimidin-4-one]",*** (an EC1.5× between >0.3 μM and ≤1 μM is indicated by three stars (***)),***** (a fold increase >1.65 is indicated by five stars (*****)),0.1 to 0.3
"Cc1cc(N2CCN[C@H](C)C2)cn2c(=O)cc(-c3ccc4nn(C)cc4c3)nc12 [Compound 755, 9-methyl-2-(2-methyl-2H-indazol-5-yl)-7-[(3R)-3-methylpiperazin-1-yl]-4H-pyrido[1,2-a]pyrimidin-4-one]",**** (an EC1.5x≤0.3 μM is indicated by four stars (****)),***** (a fold increase >1.65 is indicated by five stars (*****)),< 0.1
"Cc1cc(N2CCN[C@@H](C)C2)cn2c(=O)cc(-c3ccc4nn(C)cc4c3)nc12 [Compound 756, 9-methyl-2-(2-methyl-2H-indazol-5-yl)-7-[(3S)-3-methylpiperazin-1-yl]-4H-pyrido[1,2-a]pyrimidin-4-one]",**** (an EC1.5x≤0.3 μM is indicated by four stars (****)),***** (a fold increase >1.65 is indicated by five stars (*****)),< 0.1
"CCc1nc(C)cn2nc(-c3cc(=O)n4cc(C5=CCNCC5)cc(C)c4n3)cc12 [Compound 773, 2-(4-ethyl-6-methylpyrazolo[1,5-a]pyrazin-2-yl)-9-methyl-7-(1,2,3,6-tetrahydropyridin-4-yl)-4H-pyrido[1,2-a]pyrimidin-4-one]",**** (an EC1.5x≤0.3 μM is indicated by four stars (****)),***** (a fold increase >1.65 is indicated by five stars (*****)),< 0.1
"CCc1nc(C)cn2nc(-c3cc(=O)n4cc(C5CCN(C)CC5)cc(C)c4n3)cc12 [Compound 774, 2-(4-ethyl-6-methylpyrazolo[1,5-a]pyrazin-2-yl)-9-methyl-7-(1-methylpiperidin-4-yl)-4H-pyrido[1,2-a]pyrimidin-4-one]",**** (an EC1.5x≤0.3 μM is indicated by four stars (****)),***** (a fold increase >1.65 is indicated by five stars (*****)),< 0.1
"CCNC[C@@H]1CCN(c2ccc3nc(-c4cc5c(C)nc(C)cn5n4)cc(=O)n3c2)C1 [Compound 779, 2-(4,6-dimethylpyrazolo[1,5-a]pyrazin-2-yl)-7-{(3S)-3-[(ethylamino)methyl]pyrrolidin-1-yl}-4H-pyrido[1,2-a]pyrimidin-4-one]",**** (an EC1.5x≤0.3 μM is indicated by four stars (****)),***** (a fold increase >1.65 is indicated by five stars (*****)),< 0.1
"CCc1nc(C)cn2nc(-c3cc(=O)n4cc(C5CCN(CC)CC5)cc(C)c4n3)cc12 [Compound 790, 2-(4-ethyl-6-methylpyrazolo[1,5-a]pyrazin-2-yl)-7-(1-ethylpiperidin-4-yl)-9-methyl-4H-pyrido[1,2-a]pyrimidin-4-one]",**** (an EC1.5x≤0.3 μM is indicated by four stars (****)),***** (a fold increase >1.65 is indicated by five stars (*****)),< 0.1
"Cc1cn2cc(-c3cc(=O)n4cc(N5CCN(CCO)CC5)ccc4n3)cc(F)c2n1 [Compound 801, 2-(8-fluoro-2-methylimidazo[1,2-a]pyridin-6-yl)-7-[4-(2-hydroxyethyl)piperazin-1-yl]-4H-pyrido[1,2-a]pyrimidin-4-one]",*** (an EC1.5× between >0.3 μM and ≤1 μM is indicated by three stars (***)),***** (a fold increase >1.65 is indicated by five stars (*****)),0.1 to 0.3
"CN1CCN(c2ccc3nc(-c4ccc5nccn5c4)cc(=O)n3c2)CC1 [Compound 802, 2-(imidazo[1,2-a]pyridin-6-yl)-7-(4-methylpiperazin-1-yl)-4H-pyrido[1,2-a]pyrimidin-4-one]",* (An EC1.5× for Smn protein expression between >3 μM and ≤10 μM is indicated by one star (*)),***** (a fold increase >1.65 is indicated by five stars (*****)),1 to 3
"Cc1nc2c(F)cc(-c3cc(=O)n4cc(N5CCN6CCC[C@H]6C5)ccc4n3)cc2o1 [Compound 803, 2-(4-fluoro-2-methyl-1,3-benzoxazol-6-yl)-7-[(8aS)-hexahydropyrrolo[1,2-a]pyrazin-2(1H)-yl]-4H-pyrido[1,2-a]pyrimidin-4-one]",**** (an EC1.5x≤0.3 μM is indicated by four stars (****)),***** (a fold increase >1.65 is indicated by five stars (*****)),< 0.1
"Cc1cn2nc(-c3cc(=O)n4cc(N5CCC6(CC5)CNC6)ccc4n3)cc2c(C)n1 [Compound 804, 7-(2,7-diazaspiro[3.5]non-7-yl)-2-(4,6-dimethylpyrazolo[1,5-a]pyrazin-2-yl)-4H-pyrido[1,2-a]pyrimidin-4-one]",**** (an EC1.5x≤0.3 μM is indicated by four stars (****)),***** (a fold increase >1.65 is indicated by five stars (*****)),< 0.1

# Reference: patent US11753407B2, “Compounds for treating spinal muscular atrophy” (PTC Therapeutics, Inc., priority 2012, dated 2023)
